Source: patent US8642642B2, “Heterocyclic arylsulphones suitable for treating disorders that respond to modulation of the serotonin 5HT6 receptor” (Abbott Laboratories, priority 2006, dated 2014)

Experiments:
human 5-HT6 receptor = molecular target: T1, human 5-HT6 receptor (Homo sapiens, UniProt P50406); test: Human 5-HT6 receptor binding assay (3H-LSD displacement); conditions: membranes from HEK-293 cells, 2 nM 3H-LSD
T1 construct: expressed in transfected cells
Protocol: (§1) The substance to be tested was either dissolved in methanol/Chremophor® (BASF-AG) or in dimethyl sulfoxide and then diluted with water to the desired concentration.
The compounds were dissolved in a concentration of 10^−2 M or 10^−3 M in DMSO. Further dilutions were performed in incubation buffer.
The procedure for the binding assay was based on the method of Monsma et al. (1993) Mol Pharmacol 43: 320-327. The binding reaction was carried out in a total volume of 0.250 ml for 60 min at 37° C. Membranes from HEK-293 cells stably expressing the human 5-HT6 receptor were incubated with 2 nM ^3H-LSD in the presence or absence of various concentrations of test compound for 60 min at 37° C. Non-specific binding was defined with 100 μM Serotonin (5-HT). Assays were performed in duplicate. Bound and free radioligand was separated by filtration and bound radioactivity determined by liquid scintillation counting.
The specific ligand binding to the receptors was defined as the difference between the total binding and the nonspecific binding determined in the presence of an excess of unlabelled 5-HT. The results are expressed as a percent of control specific binding obtained in the presence of compound. The IC50 values (concentration causing a half-maximal inhibition of control specific binding) and Hill coefficients (nH) were determined by non-linear regression analysis of the competition curves using Hill equation curve fitting.
The inhibition constants (Ki) were calculated from the Cheng Prusoff equation (Ki=IC50/(1+(L/KD)), where L=concentration of radioligand in the assay, and KD=affinity of the radioligand for the receptor).

[1] = molecular target: T2, human dopamine D3 receptors (Homo sapiens, UniProt P35462); test: Dopamine D3 receptor binding ([125I]-iodosulpride); conditions: for Ki: membranes from HEK-293 cells, 0.1 nM [125I]-iodosulpride; for Ki(D2)/Ki(D3): ratio of receptor binding constants, D2L versus D3
T2 construct: expressed in transfected cells
T2 sequence (P35462 whole entry): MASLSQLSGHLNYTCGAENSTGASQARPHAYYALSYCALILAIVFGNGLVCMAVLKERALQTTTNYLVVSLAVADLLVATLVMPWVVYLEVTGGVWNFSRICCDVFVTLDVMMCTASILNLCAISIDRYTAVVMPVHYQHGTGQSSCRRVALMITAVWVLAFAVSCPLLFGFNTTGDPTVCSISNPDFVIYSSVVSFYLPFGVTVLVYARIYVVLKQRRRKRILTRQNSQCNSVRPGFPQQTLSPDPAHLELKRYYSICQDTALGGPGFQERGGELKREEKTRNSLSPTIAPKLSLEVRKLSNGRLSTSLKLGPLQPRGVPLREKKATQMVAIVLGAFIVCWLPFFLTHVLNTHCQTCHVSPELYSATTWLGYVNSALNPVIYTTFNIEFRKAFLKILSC
Protocol: as §1
Each assay mixture was run in triplicate.
The incubation buffer contained 50 mM tris, 120 mM NaCl, 5 mM KCl, 2 mM CaCl2, 2 mM MgCl2 and 0.1% bovine serum albumin, 10 μM quinolone and 0.1% ascorbic acid (prepared fresh daily). The buffer was adjusted to pH 7.4 with HCl.
After having been incubated at 25° C. for 60 minutes, the assay mixtures were filtered through a Whatman GF/B glass fiber filter under vacuum using a cell collecting device. The filters were transferred to scintillation viols using a filter transfer system. After 4 ml of Ultima Gold® (Packard) have been added, the samples were shaken for one hour and the radioactivity was then counted in a Beta-Counter (Packard, Tricarb 2000 or 2200CA). The cpm values were converted into dpm using a standard quench series and the program belonging to the instrument.
The inhibition curves were analyzed by means of iterative nonlinear regression analysis using the Statistical Analysis System (SAS) which is similar to the “LIGAND” program described by Munson and Rodbard.

T1 sequence (P50406 whole entry): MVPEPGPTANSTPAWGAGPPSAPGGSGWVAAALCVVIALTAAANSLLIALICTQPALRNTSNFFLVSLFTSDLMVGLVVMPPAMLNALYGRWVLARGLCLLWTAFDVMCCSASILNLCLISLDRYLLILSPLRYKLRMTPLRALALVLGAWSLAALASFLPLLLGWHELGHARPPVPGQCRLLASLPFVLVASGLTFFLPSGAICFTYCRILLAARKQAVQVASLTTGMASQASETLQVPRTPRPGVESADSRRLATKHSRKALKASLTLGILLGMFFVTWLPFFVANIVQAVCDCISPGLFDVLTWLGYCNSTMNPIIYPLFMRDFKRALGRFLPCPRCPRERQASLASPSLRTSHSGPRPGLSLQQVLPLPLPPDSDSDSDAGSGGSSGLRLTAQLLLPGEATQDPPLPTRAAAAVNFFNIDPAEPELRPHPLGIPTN

With `CCCN1CC[C@@H](c2ccc(NS(=O)(=O)c3cccc(Br)c3)cc2)C1` [Example 70, 3-Bromo-N-[4-((S)-1-propyl-pyrrolidin-3-yl)-phenyl]-benzenesulfonamide] the Ki (human 5-HT6 receptor) was 1 to 10 nM, the Ki [1] was 1 to 10 nM and the “Ki(D2)/Ki(D3)” value [1] was “++ (between 50 and 100)”.

With `CCCN1CC[C@@H](c2ccc(NS(=O)(=O)c3ccc(F)c(C(F)(F)F)c3)cc2)C1` [Example 102, 4-Fluoro-N-[4-((S)-1-propyl-pyrrolidin-3-yl)-phenyl]-3-trifluoromethyl-benzenesulfonamide] the Ki (human 5-HT6 receptor) was 10 to 50 nM, the Ki [1] was 10 to 50 nM and the “Ki(D2)/Ki(D3)” value [1] was “++ (between 50 and 100)”.

For `CCCN1CC[C@@H](c2ccc(NS(=O)(=O)c3cccc(Cl)c3)cc2)C1` [Example 98, 3-Chloro-N-[4-((S)-1-propyl-pyrrolidin-3-yl)-phenyl]-benzenesulfonamide], the Ki (human 5-HT6 receptor) was 1 to 10 nM, the Ki [1] was 10 to 50 nM and the “Ki(D2)/Ki(D3)” value [1] was “+ (between 10 and 50)”.

`CCCN1CC[C@@H](c2ccc(NS(=O)(=O)c3ccc(C)s3)cc2)C1.Cl` [Example 90, 5-Methyl-thiophene-2-sulfonic acid [4-((S)-1-propyl-pyrrolidin-3-yl)-phenyl]-amide hydrochloride] was tested, and the Ki (human 5-HT6 receptor) was 1 to 10 nM, the Ki [1] was 1 to 10 nM and the “Ki(D2)/Ki(D3)” value [1] was “++++ (>150)”.

With `CCCN1CC[C@@H](c2ccc(NS(=O)(=O)c3ccc(-c4ccccn4)s3)cc2)C1.Cl` [Example 66, 5-Pyridin-2-yl-thiophene-2-sulfonic acid [4-((S)-1-propyl-pyrrolidin-3-yl)-phenyl]-amide hydrochloride] the Ki (human 5-HT6 receptor) was 10 to 50 nM, the Ki [1] was less than 1 nM and the “Ki(D2)/Ki(D3)” value [1] was “+++ (between 100 and 150)”.

For `CCCN1CC[C@@H](c2ccc(NS(=O)(=O)c3cccc(F)c3)cc2)C1.O=C(O)C(F)(F)F` [Example 97, 3-Fluoro-N-[4-((S)-1-propyl-pyrrolidin-3-yl)-phenyl]-benzenesulfonamide trifluoroacetate], the Ki (human 5-HT6 receptor) was 1 to 10 nM, the Ki [1] was 10 to 50 nM and the “Ki(D2)/Ki(D3)” value [1] was “++ (between 50 and 100)”.

For `CCCc1ccc(S(=O)(=O)Nc2ccc([C@@H]3CCN(CCC)C3)cc2)s1` [Example 60, 5-Propyl-thiophene-2-sulfonic acid [4-((S)-1-propyl-pyrrolidin-3-yl)-phenyl]-amide], the Ki (human 5-HT6 receptor) was 10 to 50 nM, the Ki [1] was less than 1 nM and the “Ki(D2)/Ki(D3)” value [1] was “+ (between 10 and 50)”.

`CCCN1CC[C@@H](c2ccc(NS(=O)(=O)c3ccc(-c4csnn4)s3)cc2)C1.Cl` [Example 75, 5-[1,2,3]Thiadiazol-4-yl-thiophene-2-sulfonic acid [4-((S)-1-propyl-pyrrolidin-3-yl)-phenyl]-amide hydrochloride] was tested, and the Ki (human 5-HT6 receptor) was 10 to 50 nM, the Ki [1] was 10 to 50 nM and the “Ki(D2)/Ki(D3)” value [1] was “+ (between 10 and 50)”.

For `CCCN1CC[C@@H](c2ccc(NS(=O)(=O)c3cc(F)c(Br)cc3F)cc2)C1` [Example 3, 4-Bromo-3,6-difluoro-N-[4-((S)-1-propyl-pyrrolidin-3-yl)-phenyl]-benzenesulfonamide], the Ki (human 5-HT6 receptor) was 10 to 50 nM, the Ki [1] was 1 to 10 nM and the “Ki(D2)/Ki(D3)” value [1] was “+++ (between 100 and 150)”.

For `C=CCN1CC[C@@H](c2ccc(NS(=O)(=O)c3cccc(C(F)(F)F)c3)cc2)C1` [Example 100, N-[4-((S)-1-Allyl-pyrrolidin-3-yl)-phenyl]-3-trifluoromethyl-benzenesulfonamide], the Ki (human 5-HT6 receptor) was 1 to 10 nM, the Ki [1] was 10 to 50 nM and the “Ki(D2)/Ki(D3)” value [1] was “+++ (between 100 and 150)”.

For `CCCN1CC[C@@H](c2ccc(NS(=O)(=O)c3ccc(-c4csc(C)n4)s3)cc2)C1` [Example 78, 5-(2-Methyl-thiazol-4-yl)-thiophene-2-sulfonic acid [4-((S)-1-propyl-pyrrolidin-3-yl)-phenyl]-amide], the Ki (human 5-HT6 receptor) was 1 to 10 nM and the Ki [1] was less than 1 nM.

For “3-Trifluoromethyl-N-[4-((S)-1-propyl-pyrrolidin-3-yl)-phenyl]-benzenesulfonamide [Example 4]”, the Ki (human 5-HT6 receptor) was 1 to 10 nM, the Ki [1] was 10 to 50 nM and the “Ki(D2)/Ki(D3)” value [1] was “+ (between 10 and 50)”.

`CCCN1CC[C@@H](c2ccc(NS(=O)(=O)c3cccc(N4CCCC4)c3)cc2)C1` [Example 71, N-[4-((S)-1-Propyl-pyrrolidin-3-yl)-phenyl]-3-pyrrolidin-1-yl-benzenesulfonamide] was tested, and the Ki (human 5-HT6 receptor) was 1 to 10 nM, the Ki [1] was 10 to 50 nM and the “Ki(D2)/Ki(D3)” value [1] was “+ (between 10 and 50)”.

In the case of `CCCN1CC[C@@H](c2ccc(NS(=O)(=O)c3ccc(F)c(Br)c3F)cc2)C1.Cl` [Example 86, 3-Bromo-2,4-difluoro-N-[4-((S)-1-propyl-pyrrolidin-3-yl)-phenyl]-benzenesulfonamide hydrochloride], the Ki (human 5-HT6 receptor) is reported as 10 to 50 nM, the Ki [1] is reported as 1 to 10 nM and the “Ki(D2)/Ki(D3)” value [1] is reported as “++ (between 50 and 100)”.

In the case of `CCCN1CC[C@@H](c2ccc(NS(=O)(=O)c3cc(Cl)c(Cl)s3)cc2)C1.Cl` [Example 74, 4,5-Dichloro-thiophene-2-sulfonic acid [4-((S)-1-propyl-pyrrolidin-3-yl)-phenyl]-amide hydrochloride], the Ki (human 5-HT6 receptor) is reported as 1 to 10 nM, the Ki [1] is reported as 10 to 50 nM and the “Ki(D2)/Ki(D3)” value [1] is reported as “++ (between 50 and 100)”.

With `CCCN1CC[C@@H](c2ccc(NS(=O)(=O)c3ccc(-n4cccn4)s3)cc2)C1.Cl` [Example 73, 5-Pyrazol-1-yl-thiophene-2-sulfonic acid [4-((S)-1-propyl-pyrrolidin-3-yl)-phenyl]-amide hydrochloride] the Ki (human 5-HT6 receptor) was 10 to 50 nM, the Ki [1] was 1 to 10 nM and the “Ki(D2)/Ki(D3)” value [1] was “++ (between 50 and 100)”.

`CCCN1CC[C@@H](c2ccc(NS(=O)(=O)c3ccc(Cl)s3)cc2)C1` [Example 62, 5-Chloro-thiophene-2-sulfonic acid [4-((S)-1-propyl-pyrrolidin-3-yl)-phenyl]-amide] was tested, and the Ki (human 5-HT6 receptor) was 1 to 10 nM, the Ki [1] was 1 to 10 nM and the “Ki(D2)/Ki(D3)” value [1] was “++++ (>150)”.
